The values that follow come from publication PMC10635799, “Analogs of FTY720 inhibit TRPM7 but not S1PRs and exert multimodal anti-inflammatory effects” (The Journal of General Physiology, 2023).

Like-named read-outs stand apart in the source and are kept apart here.

For one data set, the system named is S1P receptors. As to conditions: ref Brinkmann et al., 2002; Zhu et al., 2007; cited from earlier work.
Another data set relates to HeLa cells. Kind of data set: LDH-release cytotoxicity assay. It counts as cell-based. As to conditions: 24 h. As to the method: WT HeLa cells were plated at a density of 10,000 cells per well into a 96-well tissue culture microplate (3610; Costar). AAL-149, VPC01091.4, or vehicle at 0.1, 1, 5, 10, and 25 μM was added to cells with media for a final volume of 100 μl and incubated for 24 h. LDH release was quantified using a CyQUANT LDH Cytotoxicity Assay (C20300; Thermo Fisher Scientific) and a FlexStation 3 plate reader using SoftMax […] (Molecular Devices).

Data set [1] can be described thus: Whole-blood, brain and lung drug levels by LC-MS/MS in the sublethal LPS peritonitis model. As to conditions: for Kp at 4 h / concentration at 4 h: both sexes, C57BL/6J, mouse, intraperitoneal. It counts as in vivo. As for the experimental part: 12-wk-old WT C57BL/6J mice were purchased from Jackson Laboratory (Strain #000664). An equal number of male and female mice were randomly assigned to each treatment group. All studies were conducted according to a protocol approved by the University of Virginia Animal Care and Use Committee. Mice were socially housed with littermate controls and provided with free access to a standard chow diet and water. Baseline weights were taken <1 h prior to the experiment for individual dose calculations. For the sublethal model, mice were injected intraperitoneally with LPS (1 mg/kg), VPC01091.4 (30 mg/kg), both LPS and VPC01091.4, or vehicle alone (20% 2-hydroxypropyl-β-cyclodextrin in PBS). The volume injected was 200 μl and solutions were sterile-filtered (0.45 µm) prior to use. […] Mice were euthanized at 4 h, then blood was collected via cardiac puncture and anticoagulated with K2EDTA. […] The lungs were dissected, coarsely homogenized, and partitioned into separate samples for RNA extraction and mass spectrometry analysis. Samples to be used for RNA were stored at −20°C in RNAlater Stabilization Solution (AM7021; Thermo Fisher Scientific) while samples for use in mass spectrometry were flash-frozen in liquid nitrogen. Whole brains were physically dissected, coarsely homogenized, and stored for later processing as with the lung tissue. 10 μl of each whole blood sample was reserved for mass spectrometry analysis, 15 μl was used to obtain lymphocyte counts with a Hematology Analyzer (Heska Element HT5), and the remainder was used to produce plasma through centrifugation at 2,000 × g for 15 min at 4°C. Plasma cytokines were then measured using a multiplex mouse proinflammatory cytokine panel performed by the University of Virginia Flow Cytometry Core (RRID: SCR_017829). Cytokine values beyond the limit of detection (LOD) are reported as the LOD value. Tissue RNA was isolated from preserved samples using 30 min of automated homogenization at 30 Hz with 5-mm ball-bearings in RLT Plus Lysis Buffer (TissueLyser II; Qiagen); RNA was then isolated using a RNeasy Plus Micro Kit (74134; Qiagen). Whole-tissue cytokine expression changes were then measured using qRT-PCR as with ex vivo cell culture experiments. For the lethal dose model, mice were injected with LPS (25 mg/kg), both LPS and VPC01091.4, or vehicle alone (20% 2-hydroxypropyl-β-cyclodextrin in PBS). Symptoms were scored according to a standardized clinical score sheet that assessed conjunctivitis, lethargy, degradation in hair grooming behavior, stool changes, and facial grimace (Table 1). Mice that lost >20% of their starting body weight or received a clinical score of 8 or greater were euthanized.
The sample preparation method was adapted from that published by [Shaner et al. (2009)]. Specifically, homogenized tissue (100 μl) was added to a mixture of methanol and chloroform (2 ml, 3:1, LCMS grade) and incubated at 48°C for 16 h. The mixture was cooled to room temperature, an alcoholic KOH solution (200 μl, 1 M in LCMS-grade methanol) was added, and the mixture was further incubated at 37°C for 2 h. The samples were neutralized with glacial acetic acid (20 μl) and centrifuged at 4°C for 10 min at 10,000 × g. The supernatant fluid was transferred to a glass vial and dried under a stream of nitrogen. The material was dissolved in LCMS grade methanol (500 μl), vortexed, and centrifuged at 4°C for 10 min at 10,000 × g. The supernatant fluid was transferred to LC vials for analysis by LC-MS/MS.
Analyses were performed using a tandem quadrupole mass spectrometer (Xevo TQ-S micro; Waters) coupled to a UPLC (Waters Acquity h-class+) inlet equipped with a reverse phase C18 UPLC column (BEH C-18 1.7 µm bead size, 2.1 × 50 mm; Waters). The method used is a modification of that published by [Frej et al. (2015)]. Specifically, the LC flow rate was set at 0.4 ml/min and the column temperature was 60°C. […]

With `CCCCCCCCc1ccc([C@@H]2CC[C@@](N)(CO)C2)cc1` [VPC01091.4, ((1S,3R)-1-amino-3-(4-octylphenyl)cyclopentyl)methanol], the “Activity at S1P receptors” value with S1P receptors is recorded as “not active”. The “Cytotoxicity (LDH release)” value is 4% with HeLa cells (25 μM, compared with positive control of 100% cytotoxicity) and “did not result in any significant cytotoxicity” in the data set with HeLa cells (dosages up to 10 µM). In addition, the “Mean cytotoxicity (LDH release)” value in the data set on HeLa cells (each dose up to 25 µM) is reported as under 5%. Besides, the Kp at 4 h came out at 9.35 in data set [1] (brain / whole blood, 30 mg/kg i.p., VPC4 + LPS group, read-out: Mean brain level relative to mean blood level); 8.97 in data set [1] (brain / whole blood, 30 mg/kg, 30 mg/kg i.p., VPC4 group, read-out: Mean brain level relative to mean blood level); 33.2 in data set [1] (lung / whole blood, 30 mg/kg i.p., VPC4 + LPS group, read-out: Mean lung level relative to mean blood level); 31.1 in data set [1] (lung / whole blood, 30 mg/kg, 30 mg/kg i.p., VPC4 group, read-out: Mean lung level relative to mean blood level); 32 in data set [1] (lung / whole blood, 30 mg/kg, mice that received VPC4, 30 mg/kg i.p., read-out: Lung levels relative to blood). The concentration at 4 h amounted to 162 µM in data set [1] (brain, 30 mg/kg i.p., VPC4 + LPS group, read-out: Mean brain concentration); 142 µM in data set [1] (brain, 30 mg/kg i.p., VPC4 group, read-out: Mean brain concentration); 576 µM in data set [1] (lung, 30 mg/kg i.p., VPC4 + LPS group, read-out: Mean lung concentration); 490 µM in data set [1] (lung, 30 mg/kg i.p., VPC4 group, read-out: Mean lung concentration); 17.4 µM in data set [1] (whole blood, 30 mg/kg i.p. with LPS 1 mg/kg, cotreatment group, read-out: Mean whole blood concentration); 15.8 µM in data set [1] (whole blood, 30 mg/kg i.p., drug-treated group, read-out: Mean whole blood concentration). The “Brain levels relative to blood” value in data set [1] (mice that received VPC4, 30 mg/kg i.p., 4 h) is recorded as “approximately ninefold”.
